In publication PMC8391421, “Identification of Novel Positive Allosteric Modulators of Neurotrophin Receptors for the Treatment of Cognitive Dysfunction” (Cells, 2021):

Key:
TrkA = target: T1, TrkA (Homo sapiens, UniProt P04629); assay: TrkA PathHunter cell-based assay (U2OS-TrkA/p75)
T1 construct: host or cells: U2OS (human osteosarcoma), co-expressing p75 and SHC-1 fused to the enzyme acceptor
Method: (§1) U2OS cells were maintained subconfluent in EMEM supplemented with 10% FBS and penicillin/streptomycin/hygromycin and G418. One day prior to the experiment, 5000 cells of EMEM supplemented with 0.5% horse serum were seeded in each well of a 384-well white plate. The assay was performed as previously described. Briefly, the TrkA or TrkB cell-based PathHunter® assays use enzyme fragment complementation (EFC) technology for the complementation of two β-galactosidase (β-gal) fragments in order to study protein–protein interactions. Upon activation with ligand, TrkA or TrkB are phosphorylated on several tyrosine residues, including tyrosine 490, leading to an interaction with SHC-1. In the PathHunter® assays, the Trk-receptors are fused to an enzyme donor tag, and SHC-1 is fused to a larger part of β-gal called an enzyme acceptor. The interactions between the recombinant enzyme donor, i.e., the Trk-receptor, with an enzyme acceptor, i.e., SHC-1, leads to an active β-gal enzyme. The functional (complemented) β-gal will hydrolyze a substrate to generate a luminescence signal. The generated luminescence was read using an EnVision plate reader from PerkinElmer, Upplands Väsby, Sweden, or an ID5 plate reader from Molecular Devices, Berkshire, RG41 5TS UK. […] Min- and Max-control wells were included on each plate.
Both Toltrazuril and Ponazuril are registered veterinary products prescribed for parasitic infections in animals. […] The activation of Trk-receptors leads to an intracellular interaction between the Trk-receptor and SHC-1 and thereby to the complementation of β-gal, which will render in a functional enzyme. β-gal will hydrolyze a substrate to generate luminescence, which is proportional to the number of activated receptors.

TrkB = target: T2, TrkB (Homo sapiens, UniProt Q16620); assay: TrkB PathHunter cell-based assay (U2OS-TrkB/p75)
T2 construct: host or cells: U2OS (human osteosarcoma), co-expressing p75 and SHC-1 fused to the enzyme acceptor
Method: as §1, with “each plate. A compound was considered a hit if the percent activation was more than 50% and if the value was two standard deviations higher than the mean value of all of the samples on the plate. The average activation of all of samples on 10 different 384-well plates was 31%. […] Due to the risk of adverse events with the systemic administration of TrkA agonists, the screen and the re-screen processes were designed to increase the likelihood of identifying the positive modulators of NGF-signaling rather than identifying TrkA agonists. Based on the results of the re-screen, in combination with the physical–chemical properties of the molecules, a collection of hits was used for the EC50 determinations.” for “each plate.”
Both Toltrazuril and Ponazuril are registered veterinary products prescribed for parasitic infections in animals. […] The cellular response to NGF or BDNF was measured using PathHunter® assays employing β-gal enzyme fragment complementation technology. The activation of Trk-receptors leads to an intracellular interaction between the Trk-receptor and SHC-1 and thereby to the complementation of β-gal, which will render in a functional enzyme. β-gal will hydrolyze a substrate to generate luminescence, which is proportional to the number of activated receptors. […]

Wistar rats = assay: Novel object recognition; assay type: in vivo, rat; conditions: 1 mg/kg
Method: The novel object recognition model was conducted by Suven Life Sciences Ltd. (Hyderabad, India) using male Wistar rats (n = 12/group). This study was performed in compliance with the requirements and in-house animal care and usage policy of the Institutional Animal Ethics Committee (IAEC). The experiment was conducted over a 5-day period. For the first 3 days, ACD855 or vehicle were administered to the animals. On Day 4, the rats were acclimatized to their respective arenas for 20 min and then returned to their home cages for the administration of ACD855 or vehicle (1 h post habituation phase). On Day 5, the rats were administered vehicle or ACD855 1 h prior to trial, donepezil (1 mg/kg) was injected 30 min prior to trial, and scopolamine (1 mg/kg) was injected 20 min prior to trial. 20 min after scopolamine administration, the rats were subjected to the familiarization phase. The experiment was performed as described by Lueptow. The discriminative index for the drug-treated groups was compared to that of the vehicle group by use of the Kruskal–Wallis test. The discriminative index is the ratio of time spent exploring the novel object divided by the sum of the time spent exploring the novel object and a familiar object in the choice trial.

C57BL/6J mice = assay: Passive avoidance task; assay type: in vivo, mouse; conditions: low doses given by themselves; physostigmine 0.025 mg/kg
Method: The passive avoidance (PA) task is an associate learning paradigm that is based on Pavlovian fear-conditioning and instrumental conditioning and conducted as previously described in male C57BL/6J mice (n = 7–8/group) from Charles River Laboratories, Sulzfeld, Germany. Vehicle or ACD855 (1, 3 or 10 mg/kg), formulated in 20% DMSO in 0.1 M sodium phosphate buffer pH 8.0, was administered daily (Days 1–4) through s.c. injections (4 mL/kg body weight). ACD856 (0.1, 0.3, 1 or 3 mg/kg) was administered by a single s.c. dose on the training day (Day 4). ACD855, ACD856, ANA-12 (0.5 mg/kg, from Sigma Aldrich, Stockholm, Sweden), physostigmine (0.025 mg/kg, from Sigma Aldrich, Stockholm, Sweden), or vehicle was administered 60 min prior to training, except for when addressing the effects on consolidation, in which case, ACD856 was dosed 5 min after the training session on day 4. Moreover, on the training day (Day 4), scopolamine or the NMDA-antagonist MK-801 (both from Sigma Aldrich, Stockholm, Sweden) at 0.3 mg/kg or vehicle was administered once s.c. 30 min prior to training. No compound was administered on the test day (Day 5), except for when addressing effects on retrieval, in which case, ACD856 was dosed 30 min prior to testing on day 5. Retention latencies and time spent in the bright compartment were determined 24 h after training (Day 5).

[1] = tested on: Shaffer collaterals-CA1 pathway, hippocampal slices; assay: Facilitation of long-term potentiation in rat hippocampal slices; conditions: 50 ng/mL; n = 9 slices from 7 rats
Method: Male Sprague Dawley rats (4–5 weeks old) from Charles River Laboratories, Sulzfeld, Germany, were used in these experiments. Rats were deeply anesthetized using isoflurane and decapitated soon after the disappearance of the corneal reflexes. The brains were removed and placed in ice-cold standard artificial CSF (aCSF) solution (124 mM NaCl, 30 mM NaHCO3, 10 mM glucose, 1.25 mM NaH2PO4, 3.5 mM KCl, 1 mM MgCl2, 2 mM CaCl2). Hippocampal horizontal sections (400 µm thick) were prepared using a Leica VT1200S vibratome (Leica Microsystems, Kista, Sweden). Immediately after slicing, sections were transferred into an interface incubation chamber filled with standard aCSF. The chamber was held at 34 °C during the slicing period and was subsequently allowed to cool down to room temperature. […] The facilitation of long-term potentiation (LTP) was monitored in the Shaffer collaterals (SC)-CA1 pathway in the hippocampus. […] Data were normalized with respect to the mean fEPSP slope recorded during the last 10 min of the baseline period.
It has been well-described that the transient, short-term plasticity of synaptic strength induced by a weak stimulation in hippocampal slices can turn into long-term potentiation (LTP) through the exogenous application of BDNF [71, 72, 73]. […] In the control slices, the recorded potentiation decreased to the baseline level after 60 min. […]

T1 sequence (P04629 33-796): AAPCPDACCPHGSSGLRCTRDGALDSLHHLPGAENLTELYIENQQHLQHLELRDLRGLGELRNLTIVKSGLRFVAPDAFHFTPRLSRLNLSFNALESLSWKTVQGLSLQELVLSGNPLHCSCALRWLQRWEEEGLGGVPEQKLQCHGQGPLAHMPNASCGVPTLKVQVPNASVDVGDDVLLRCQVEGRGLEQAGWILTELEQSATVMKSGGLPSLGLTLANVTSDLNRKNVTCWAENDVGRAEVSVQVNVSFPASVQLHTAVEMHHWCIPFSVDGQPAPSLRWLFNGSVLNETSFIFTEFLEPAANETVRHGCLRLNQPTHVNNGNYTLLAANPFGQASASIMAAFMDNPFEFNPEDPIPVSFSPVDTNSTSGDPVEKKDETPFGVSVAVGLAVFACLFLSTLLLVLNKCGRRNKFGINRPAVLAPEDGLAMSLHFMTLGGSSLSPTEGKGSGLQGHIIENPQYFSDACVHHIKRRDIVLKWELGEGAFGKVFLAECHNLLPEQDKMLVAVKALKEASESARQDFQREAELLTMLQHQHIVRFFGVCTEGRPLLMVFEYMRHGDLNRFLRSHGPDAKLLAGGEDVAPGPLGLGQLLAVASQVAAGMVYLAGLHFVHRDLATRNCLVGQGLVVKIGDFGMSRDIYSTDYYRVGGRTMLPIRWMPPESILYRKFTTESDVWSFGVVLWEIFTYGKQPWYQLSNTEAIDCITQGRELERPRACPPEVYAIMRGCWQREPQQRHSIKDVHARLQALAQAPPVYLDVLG
T2 sequence (Q16620 32-822): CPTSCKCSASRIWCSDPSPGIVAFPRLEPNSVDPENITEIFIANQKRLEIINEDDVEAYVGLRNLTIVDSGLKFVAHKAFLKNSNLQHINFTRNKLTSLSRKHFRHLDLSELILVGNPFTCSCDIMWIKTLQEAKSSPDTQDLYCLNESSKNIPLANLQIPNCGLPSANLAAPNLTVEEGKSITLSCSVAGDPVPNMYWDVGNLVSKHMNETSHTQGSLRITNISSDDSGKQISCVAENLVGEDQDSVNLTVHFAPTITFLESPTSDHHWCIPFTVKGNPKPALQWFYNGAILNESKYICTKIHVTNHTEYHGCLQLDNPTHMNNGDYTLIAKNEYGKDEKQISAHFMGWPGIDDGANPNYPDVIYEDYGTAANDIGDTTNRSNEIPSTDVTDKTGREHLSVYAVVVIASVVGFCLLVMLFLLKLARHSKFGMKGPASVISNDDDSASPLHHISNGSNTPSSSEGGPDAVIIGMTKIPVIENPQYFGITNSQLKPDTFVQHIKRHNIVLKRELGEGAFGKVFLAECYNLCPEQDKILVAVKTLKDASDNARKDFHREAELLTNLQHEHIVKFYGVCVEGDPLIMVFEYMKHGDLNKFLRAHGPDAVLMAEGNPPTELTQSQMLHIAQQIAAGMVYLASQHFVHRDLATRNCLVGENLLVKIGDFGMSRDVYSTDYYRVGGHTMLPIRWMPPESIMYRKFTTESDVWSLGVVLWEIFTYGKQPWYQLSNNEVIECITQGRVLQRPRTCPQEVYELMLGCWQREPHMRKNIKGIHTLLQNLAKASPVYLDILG

Molecule: N#CC(c1ccc(Cl)cc1)c1c(Cl)cc(-n2ncc(=O)[nH]c2=O)cc1Cl (centres unmarked) [Diclazuril]
- activity in the TrkA assay (TrkA): not active
- activity in the TrkB assay (TrkB): not active

Molecule: COc1cc2c(cc1OC)C(=O)C(CC1CCN(Cc3ccccc3)CC1)C2 (centres unmarked) [Donepezil]
- time with novel object vs familiar object after scopolamine (Wistar rats): spent significantly more time with the novel object

Molecule: CNC(=O)Oc1ccc2c(c1)[C@]1(C)CCN(C)[C@@H]1N2C [physostigmine]
- effect of low dose alone on scopolamine-induced memory impairment (C57BL/6J mice): no significant effect

B1: BDNF: recombinant human brain-derived neurotrophic factor (protein, UniProt P23560 19-247, looked up)
Neurotrophic factor BDNF …: APMKEANIRGQGGLAYPGVRTHGTLESVNGPKAGSRGLTSLADTFEHVIEELLDEDQKVRPNEENNKDADLYTSRVMLSSQVPLEPPLLFLLEEYKNYLDAANMSMRVRRHSDPARRGELSVCDSISEWVTAADKKTAVDMSGGTVTVLEKVPVSKGQLKQYFYETKCNPMGYTKEGCRGIDKRHWNSQCRTTQSYVRALTMDSKKRIGWRFIRIDTSCVCTLTIKRGR
- long-lasting potentiation of evoked synaptic responses (fEPSP slope), fold increase [1]: 1.22 ± 0.04 fold
